Measured values reported in paper PMC5931996 (Scientific Reports, 2018).

Tests used:
[1] = tested on: 5-HTP-induced head twitches in rats; assay: 5-HTP-induced head twitch; format: in vivo, SD rats; conditions: mean ± S.E.M.
Protocol: SD rats (200–250 g, 8 animals/ group) were housed in the test room for at least 1 h before the experiment. […] Then, all animals were intraperitoneally injected with 0.9% saline or 5-HTP (320 mg/kg) 40 min before the test. The number of head twitches was recorded during a period of 40–70 min after intraperitoneal injection.

[2] = tested on: MK-801-induced locomotor hyperactivity in rats; assay: Inhibition of MK-801-induced hyperactivity; format: in vivo, SD rats; conditions: mean ± S.E.M.
Protocol: […]. […] Animals were returned to the activity chambers after the intraperitoneal injection, and locomotor activity as quantitated as the distance travelled (mm) was recorded for 10 to 20 minutes using the TopScan monitoring system. At the end of each trial, the faecal boli were cleaned to avoid the potential influence of intramaze cues (odour trails, etc.) on the rats[36].

[3] = tested on: MK-801-treated rats; assay: Morris water maze test, acute administration, MK-801-treated rats; format: in vivo, SD rats; conditions: mean ± S.E.M.
Protocol: SD rats (200–250 g, 8 animals/ group) were trained continuously until all rats found the platform within 30 sec, and the training time depended on the training results. […]. Then, all animals were intraperitoneal injections of 0.9% saline or MK-801 (0.2 mg/kg, i.p.) 30 minutes before the test. The test was started and the escape latency of rats was measured during the test in which platform was not withdrawn. A trial was deemed complete as soon as the rat had located platform or when 60 s had elapsed, whichever occurred first. The swimming activity of each rat was monitored by TopScan monitoring system. At the end of each trial, the maze was cleaned. The maze was rotated by clockwise after each training day to avoid potential intramaze cues (odour trails, etc.)[38].

[4] = tested on: MK-801-treated rats; assay: Morris water maze test, subchronic administration, MK-801-treated rats; format: in vivo, SD rats
Protocol: The MWM test was started after the last injection. Each rat was trained in 4 trials per day for 5 consecutive days. The escape latency to find the submerged escape platform in the water maze was recorded with the TopScan monitoring system. Each training session lasted for a maximum of 60 s. If the escape latency exceeded 60 s, it was recorded as 60 s and the rat was manually guided to the platform. On day 6, the platform was removed and each rat was allowed to swim freely for 60 s.

[5] = tested on: MK-801-induced NOR deficit in rats; assay: Novel object recognition (NOR) test; conditions: MK-801 0.3 mg/kg i.p. day 15–28 with vehicle (model group)
Protocol: Rats were testing after the last administration. Following a 10-min habituation session on the day of testing, each rat was placed in the NOR chamber (grey PVC boxes 60*60 cm wide and 45 cm deep) and exposed to two identical objects (Left and Right) for a period of 10 min (Acquisition Trial). The objects used in this experiment were rectangular plastic cases. […] Rats were then returned to their home cage for an inter-trial interval (ITI) of 1.5 h and the entire box was cleaned. Then one was replaced with an identical familiar copy and one was replaced with a novel object. Following the ITI, rats were returned to the apparatus and allowed to explore the familiar and novel objects in the test box for a 10-min retention trial (Retention Trial). All experiments were monitored by TopScan monitoring system[39].

[6] = tested on: plasma prolactin; assay: Plasma prolactin levels in rats (ELISA); format: in vivo; conditions: 0.2 mg/kg for 28 days, mean ± S.E.M.
Protocol: […]. Plasma prolactin levels were assessed using a commercially available Prolactin ELISA (Mouse/Rat) purchased from GenWay, according to the manufacturer’s instructions. Plasma TC and triglyceride levels were assessed using a Roche automatic biochemical analyser Cobas c 311.

[7] = Body weight of rats after 28 days of dosing; format: in vivo; conditions: 0.2 mg/kg for 28 days, mean ± S.E.M.
[8] = molecular target: human 5-HT2A receptor (Homo sapiens, UniProt P28223); assay: Radioligand binding assay, 5-HT2A receptor; conditions: radioligand displacement, transfected HEK-293 cells; read-out: Receptor binding affinity (Ki), 5-HT2A
Sequence of human 5-HT2A receptor (P28223 whole entry): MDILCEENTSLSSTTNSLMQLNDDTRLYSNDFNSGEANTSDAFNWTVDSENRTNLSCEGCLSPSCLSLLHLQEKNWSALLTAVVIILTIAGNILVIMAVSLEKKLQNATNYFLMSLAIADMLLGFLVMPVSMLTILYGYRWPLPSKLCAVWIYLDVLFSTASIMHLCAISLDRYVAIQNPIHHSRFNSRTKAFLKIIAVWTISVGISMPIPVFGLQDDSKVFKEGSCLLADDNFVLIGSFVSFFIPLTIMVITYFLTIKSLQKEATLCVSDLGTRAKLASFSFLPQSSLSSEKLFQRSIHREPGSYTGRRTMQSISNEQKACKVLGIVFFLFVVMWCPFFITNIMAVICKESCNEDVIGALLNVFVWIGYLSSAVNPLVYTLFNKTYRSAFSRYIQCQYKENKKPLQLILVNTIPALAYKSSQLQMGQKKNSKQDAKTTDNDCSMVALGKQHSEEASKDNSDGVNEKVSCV

[9] = molecular target: T1, human 5-HT2B receptor (Homo sapiens, UniProt P41595); assay: Radioligand binding assay, 5-HT2B receptor; conditions: radioligand displacement, transfected HEK-293 cells; read-out: Receptor binding affinity (Ki), 5-HT2B
T1 construct: expressed in transfected cells; host or cells: HEK-293
T1 sequence (P41595 whole entry): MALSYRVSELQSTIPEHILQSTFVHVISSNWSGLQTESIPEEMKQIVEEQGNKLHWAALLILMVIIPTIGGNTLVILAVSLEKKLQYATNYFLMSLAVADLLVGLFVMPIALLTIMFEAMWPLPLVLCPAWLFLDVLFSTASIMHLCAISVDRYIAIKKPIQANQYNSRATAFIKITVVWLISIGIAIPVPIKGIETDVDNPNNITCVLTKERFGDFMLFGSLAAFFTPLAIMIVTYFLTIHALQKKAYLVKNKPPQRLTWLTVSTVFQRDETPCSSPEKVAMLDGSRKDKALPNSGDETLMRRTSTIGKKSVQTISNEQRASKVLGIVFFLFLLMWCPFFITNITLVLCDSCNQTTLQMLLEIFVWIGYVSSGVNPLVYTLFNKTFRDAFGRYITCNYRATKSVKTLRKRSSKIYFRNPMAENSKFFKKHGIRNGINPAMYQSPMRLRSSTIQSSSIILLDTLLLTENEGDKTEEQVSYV
Protocol: (§1) The affinity of compounds for the human dopamine D2, D3, D4, 5-HT2A, 5-HT2B, 5-HT2C, 5-HT6, 5-HT7, H1, α1A, and α1B receptors in transfected HEK-293 cells was determined using a radioligand binding assay. Cell membrane homogenates were incubated in the absence or presence of the test compound in a buffer. Nonspecific binding was measured in the presence of the standard reference compound. Following incubation, samples were rapidly filtered under a vacuum through glass fibre filters (GF/B, Packard) presoaked with 0.3% PEI and rinsed several times with ice-cold 50 mM Tris-HCl using a 96-sample cell harvester (Unifilter, Packard). Filters were dried and then radioactivity was counted in a scintillation counter (Topcount, Packard) using a scintillation cocktail (Microscint 0, Packard). The results are expressed as percent inhibition of the specific binding of the radioligand in the control. The standard reference compound was tested in each experiment at several concentrations to obtain a competition curve from which its Ki was calculated.

[10] = molecular target: T2, human 5-HT2C receptor (Homo sapiens, UniProt P28335); assay: Radioligand binding assay, 5-HT2C receptor; conditions: radioligand displacement, transfected HEK-293 cells; read-out: Receptor binding affinity (Ki), 5-HT2C
T2 construct: expressed in transfected cells; host or cells: HEK-293
T2 sequence (P28335 33-458): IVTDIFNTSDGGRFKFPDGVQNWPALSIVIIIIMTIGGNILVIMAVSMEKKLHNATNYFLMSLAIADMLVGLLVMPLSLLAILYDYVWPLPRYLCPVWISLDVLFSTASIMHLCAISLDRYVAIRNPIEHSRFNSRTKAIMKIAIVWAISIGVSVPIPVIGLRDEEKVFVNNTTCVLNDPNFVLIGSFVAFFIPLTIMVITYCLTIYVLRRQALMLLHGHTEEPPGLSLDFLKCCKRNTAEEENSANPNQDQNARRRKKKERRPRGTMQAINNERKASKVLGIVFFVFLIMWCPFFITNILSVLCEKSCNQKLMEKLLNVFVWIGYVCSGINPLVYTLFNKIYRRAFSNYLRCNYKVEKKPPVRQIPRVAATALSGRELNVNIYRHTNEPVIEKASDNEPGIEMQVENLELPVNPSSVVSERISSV
Protocol: as §1

[11] = molecular target: T3, human 5-HT6 receptor (Homo sapiens, UniProt P50406); assay: Radioligand binding assay, 5-HT6 receptor; conditions: radioligand displacement, transfected HEK-293 cells; read-out: Receptor binding affinity (Ki), 5-HT6
T3 construct: expressed in transfected cells; host or cells: HEK-293
T3 sequence (P50406 whole entry): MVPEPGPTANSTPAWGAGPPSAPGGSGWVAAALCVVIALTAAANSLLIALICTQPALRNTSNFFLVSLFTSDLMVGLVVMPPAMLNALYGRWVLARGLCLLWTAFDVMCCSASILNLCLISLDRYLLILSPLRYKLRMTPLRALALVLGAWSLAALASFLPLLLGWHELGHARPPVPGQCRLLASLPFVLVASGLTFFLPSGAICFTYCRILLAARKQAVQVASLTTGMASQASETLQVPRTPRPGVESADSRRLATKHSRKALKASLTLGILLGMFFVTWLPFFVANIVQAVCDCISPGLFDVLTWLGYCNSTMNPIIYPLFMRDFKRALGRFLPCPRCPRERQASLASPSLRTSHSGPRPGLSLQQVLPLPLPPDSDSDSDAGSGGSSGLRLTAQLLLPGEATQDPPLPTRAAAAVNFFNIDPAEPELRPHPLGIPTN
Protocol: as §1

[12] = molecular target: T4, human 5-HT7 receptor (Homo sapiens, UniProt P34969); assay: Radioligand binding assay, 5-HT7 receptor; conditions: radioligand displacement, transfected HEK-293 cells; read-out: Receptor binding affinity (Ki), 5-HT7
T4 construct: expressed in transfected cells; host or cells: HEK-293
T4 sequence (P34969 whole entry): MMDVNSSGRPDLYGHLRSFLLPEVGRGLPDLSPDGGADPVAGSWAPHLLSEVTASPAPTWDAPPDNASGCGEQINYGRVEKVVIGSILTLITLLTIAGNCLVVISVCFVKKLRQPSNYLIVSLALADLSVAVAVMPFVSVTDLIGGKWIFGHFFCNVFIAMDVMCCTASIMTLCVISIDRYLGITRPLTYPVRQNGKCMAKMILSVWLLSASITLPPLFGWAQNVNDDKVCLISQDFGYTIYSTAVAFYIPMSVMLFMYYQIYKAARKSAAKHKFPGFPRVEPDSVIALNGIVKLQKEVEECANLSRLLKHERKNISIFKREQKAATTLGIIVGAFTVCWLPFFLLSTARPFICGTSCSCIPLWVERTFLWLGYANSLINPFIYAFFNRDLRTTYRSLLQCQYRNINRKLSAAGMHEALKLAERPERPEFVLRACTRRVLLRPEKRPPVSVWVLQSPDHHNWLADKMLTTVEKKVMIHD
Protocol: as §1

[13] = molecular target: T5, human α1A receptor (Homo sapiens, UniProt P35348); assay: Radioligand binding assay, α1A receptor; conditions: radioligand displacement, transfected HEK-293 cells; read-out: Receptor binding affinity (Ki), α1A
T5 construct: expressed in transfected cells; host or cells: HEK-293
T5 sequence (P35348 1-466): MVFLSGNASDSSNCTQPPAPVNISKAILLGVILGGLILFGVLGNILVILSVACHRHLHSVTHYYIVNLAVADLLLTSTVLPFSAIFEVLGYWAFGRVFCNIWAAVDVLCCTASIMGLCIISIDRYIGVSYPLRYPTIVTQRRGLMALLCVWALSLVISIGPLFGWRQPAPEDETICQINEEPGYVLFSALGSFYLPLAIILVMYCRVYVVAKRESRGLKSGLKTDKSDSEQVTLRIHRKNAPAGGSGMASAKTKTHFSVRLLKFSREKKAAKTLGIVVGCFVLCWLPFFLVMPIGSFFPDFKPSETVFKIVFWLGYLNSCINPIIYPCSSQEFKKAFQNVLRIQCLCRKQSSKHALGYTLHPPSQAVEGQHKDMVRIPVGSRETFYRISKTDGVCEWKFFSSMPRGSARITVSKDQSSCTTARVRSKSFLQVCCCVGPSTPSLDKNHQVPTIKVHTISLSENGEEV
Protocol: as §1

[14] = molecular target: T6, human α1B receptor (Homo sapiens, UniProt P35368); assay: Radioligand binding assay, α1B receptor; conditions: radioligand displacement, transfected HEK-293 cells; read-out: Receptor binding affinity (Ki), α1B
T6 construct: expressed in transfected cells; host or cells: HEK-293
T6 sequence (P35368 1-520): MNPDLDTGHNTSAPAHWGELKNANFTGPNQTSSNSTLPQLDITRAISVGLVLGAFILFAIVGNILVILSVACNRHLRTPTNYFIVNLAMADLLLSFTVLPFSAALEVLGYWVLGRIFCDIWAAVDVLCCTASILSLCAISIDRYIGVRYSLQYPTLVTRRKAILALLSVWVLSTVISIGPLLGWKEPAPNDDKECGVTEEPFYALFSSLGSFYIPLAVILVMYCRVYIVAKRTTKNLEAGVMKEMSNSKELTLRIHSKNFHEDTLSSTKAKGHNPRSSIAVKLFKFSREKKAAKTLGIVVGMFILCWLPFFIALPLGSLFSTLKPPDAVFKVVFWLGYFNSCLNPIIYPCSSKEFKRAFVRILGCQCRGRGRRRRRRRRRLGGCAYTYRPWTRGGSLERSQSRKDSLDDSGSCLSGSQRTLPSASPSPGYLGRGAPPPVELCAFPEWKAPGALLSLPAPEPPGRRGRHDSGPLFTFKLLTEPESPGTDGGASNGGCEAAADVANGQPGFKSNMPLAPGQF
Protocol: as §1

[15] = molecular target: T7, human H1 receptor (Homo sapiens, UniProt P35367); assay: Radioligand binding assay, H1 receptor; conditions: radioligand displacement, transfected HEK-293 cells; read-out: Receptor binding affinity (Ki), H1
T7 construct: expressed in transfected cells; host or cells: HEK-293
T7 sequence (P35367 whole entry): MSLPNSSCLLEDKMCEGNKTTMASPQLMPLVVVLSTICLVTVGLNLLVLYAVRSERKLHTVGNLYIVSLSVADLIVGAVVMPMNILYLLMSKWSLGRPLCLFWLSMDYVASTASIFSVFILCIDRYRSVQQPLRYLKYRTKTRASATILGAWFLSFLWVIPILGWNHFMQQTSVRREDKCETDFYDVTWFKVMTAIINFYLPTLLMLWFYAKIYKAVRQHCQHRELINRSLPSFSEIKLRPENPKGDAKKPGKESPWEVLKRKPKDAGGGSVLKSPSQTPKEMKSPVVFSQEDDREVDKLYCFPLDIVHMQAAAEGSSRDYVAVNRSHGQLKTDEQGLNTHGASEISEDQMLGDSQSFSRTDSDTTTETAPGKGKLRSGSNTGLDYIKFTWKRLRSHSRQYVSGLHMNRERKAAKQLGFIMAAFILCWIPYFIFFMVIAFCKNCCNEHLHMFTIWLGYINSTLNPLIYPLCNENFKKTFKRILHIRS
Protocol: as §1

[16] = tested on: mice; assay: Forelimb catalepsy in mice; conditions: NIH, mouse, in vivo, po, 1 h
Protocol: Then each mouse was positioned such that both front paws rested on a […] diameter steel rod (covered with non-slippery tape) placed 3.5 cm above the surface of the bench. The period of time that each mouse maintained this position was recorded. The experiment was repeated at least 10 times. Finally, the longest period of catalepsy for each mouse was recorded.

[17] = […] oral 1 h before test, MK-801 0.3 mg/kg i.p.
[18] = […] oral 1 h before test, 5-HTP 320 mg/kg i.p., 40–70 min after injection
[19] = […] oral 1 h before test, MK-801 0.2 mg/kg i.p.

In the case of `N[C@@H](Cc1c[nH]c2ccc(O)cc12)C(=O)O` [5-HTP, reference compound], the “number of head twitches” value ([1]; 5-HTP 320 mg/kg i.p. with vehicle (model group)) is reported as 52.5 ± 2.57.

For `C[C@]12N[C@H](Cc3ccccc31)c1ccccc12` [MK-801, reference compound], the distance travelled ([2]; MK-801 0.3 mg/kg i.p. with vehicle (model group)) was 4933 ± 275.6 mm, the escape latency ([3]; MK-801 0.2 mg/kg i.p. with vehicle (model group)) was 35.67 ± 4.05 s and the escape latency ([4]; MK-801 0.3 mg/kg i.p. day 15–28 with vehicle (model group), mean ± S.E.M.) was 25.56 ± 4.36 s. For the same molecule, the “Discrimination Index (DI)” value [5] was 0.51 ± 0.04.

For `Cc1nc2n(c(=O)c1CCN1CCC(c3noc4cc(F)ccc34)CC1)CCCC2` [Risperidone, reference compound], the distance travelled ([2]; 0.2 mg/kg oral 1 h before test, MK-801 0.3 mg/kg i.p.) was 1886 ± 437.3 mm, the “number of head twitches” value ([1]; 0.2 mg/kg oral 1 h before test, 5-HTP 320 mg/kg i.p., 40–70 min after injection) was 9 ± 1.73 and the escape latency ([3]; 0.2 mg/kg oral 1 h before test, MK-801 0.2 mg/kg i.p.) was 20.71 ± 2.18 s. For the same molecule, the escape latency ([4]; 0.2 mg/kg oral for 28 days, MK-801 0.3 mg/kg i.p. day 15–28, mean ± S.E.M.) was 11.81 ± 3.06 s, the plasma prolactin level [6] was 5.67 ± 0.51 ng/mL and the body weights [7] was 116.4 ± 10.51 g.

Work on `O=C1COc2ccc(OCCCCN3CCN(c4cccc(Cl)c4Cl)CC3)cc2N1` [PCC0104005] yielded a Ki [8] of 5.1 nM, a Ki [9] of 0.34 nM and a Ki [10] of 36 nM. The Ki [11] was 85 nM, the Ki [12] was 5 nM and the Ki [13] was 8.3 nM. It also gave a Ki [14] of 3.2 nM, a Ki [15] of 1.1 nM and a distance travelled ([2]; 3.0 mg/kg oral 1 h before test, MK-801 0.3 mg/kg i.p.) of 2646 ± 235.2 mm. For the same molecule, the distance travelled ([2]; 6.0 mg/kg oral 1 h before test, MK-801 0.3 mg/kg i.p.) was 2655 ± 286.5 mm, the distance travelled [2, 17] was 3284 ± 220.7 mm and the “distance travelled (spontaneous activity)” value ([2]; administered alone without MK-801, dose not stated) was 1885 ± 269.7 mm. For the same molecule, the “number of head twitches” value ([1]; 3.0 mg/kg oral 1 h before test, 5-HTP 320 mg/kg i.p., 40–70 min after injection) was 24.86 ± 4.35, the “number of head twitches” value ([1]; 6.0 mg/kg oral 1 h before test, 5-HTP 320 mg/kg i.p., 40–70 min after injection) was 10.71 ± 4.81 and the “number of head twitches” value [1, 18] was 20.17 ± 2.70. It also gave an escape latency ([3]; 3.0 mg/kg oral 1 h before test, MK-801 0.2 mg/kg i.p.) of 18.35 ± 2.76 s, an escape latency ([3]; 6.0 mg/kg oral 1 h before test, MK-801 0.2 mg/kg i.p.) of 17.45 ± 1.78 s and an escape latency [3, 19] of 20.60 ± 1.30 s. The escape latency ([4]; 3.0 mg/kg oral for 28 days, MK-801 0.3 mg/kg i.p. day 15–28, mean ± S.E.M.) was 11.45 ± 2.70 s, the escape latency ([4]; 6.0 mg/kg oral for 28 days, MK-801 0.3 mg/kg i.p. day 15–28, mean ± S.E.M.) was 14.88 ± 2.95 s and the “forelimb catalepsy duration (longest)” value ([16]; 2 mg/kg) was 22.56 ± 2.65 s. For the same molecule, the “forelimb catalepsy duration (longest)” value ([16]; 4 mg/kg) was 25.89 ± 3.59 s and the “forelimb catalepsy duration (longest)” value ([16]; 8 mg/kg) was 21.23 ± 2.53 s.

With `O=C1CCc2ccc(OCCCCN3CCN(c4cccc(Cl)c4Cl)CC3)cc2N1` [Aripiprazole, reference compound] the distance travelled [2, 17] was 1957 ± 455.1 mm, the “number of head twitches” value [1, 18] was 31.5 ± 3.12 and the escape latency [3, 19] was 21.71 ± 0.86 s. The escape latency ([4]; […] oral for 28 days, MK-801 0.3 mg/kg i.p. day 15–28, mean ± S.E.M.) was 31.83 ± 5.00 s.
